What was measured:
[1] = Stability test (coloration on storage); assay type: physicochemical; settings: for Coloration, 2 weeks after / Coloration, 4 weeks after: 1% in 50% ethanol, pH 6.0 to 8.0, stored at 50° C., total points of 10 panelists
Method: Aascorbic acid, kojic acid, hydroquinone and arbutin which are known skin-lightening agents were used as comparative compounds. […] The solutions were placed in 50 mL screw tubes and closely sealed, and stored at 50° C. for 4 weeks. The degrees of coloration of the solution directly after preparation of the test sample, 2 weeks after storage and 4 weeks after storage were evaluated by 10 panelists according to the following criteria. 3: almost no change as compared with directly after preparation 2: colored as compared with directly after preparation 1: intensely colored as compared with directly after preparation The evaluation results of coloration were classified as described below.

B16 melanoma 4A5 cell = assay: Melanogenesis inhibiting test (theophylline-induced melanine production); assay type: cell-based; settings: B16 mouse melanoma 4A5, theophylline 1.0 mmol/L, 3 days culture, N=4; for IC40: B16 melanoma 4A5, 72 h, read-out: Judgment: sample concentration showing the melanogenesis inhibiting ratio of 40% or more
Method: As a test for a skin-lightening effect, evaluation of the action of B16 melanoma 4A5 cell on theophylline-induced melanine production was carried out on propyl-phenyl-ether derivatives of the present invention, according to the following procedure. (1) B16 mouse melanoma 4A5 strain was sowed onto a 48-well plate at a cell density of 8.0×10^3 cells/well. (2) Culturing was performed for 24 hours with Dulbecco's Modified Eagle's medium (manufactured by SIGMA. Hereinafter, abbreviated as D-MEM) containing 10% fetal bovine serum (manufactured by Nichirei Biosciences Inc.). […] (3) After culturing for 3 days in the co-existence of a sample, the medium was removed using an aspirator. Then, after distilled water was added, cells were broken by an ultrasonic wave. (4) Thereafter, the amount of protein was determined using BCA protein assay kit (manufactured by Thermo Fisher Scientific Inc.), and the produced amount of melanine was measured by an alkali solubilizing method described below. [Alkali Solubilizing Method] To the cell-destructed solution was added sodium hydroxide so as to give a final concentration of 1 mol/L and the mixture was dissolved by heating (60° C., 30 minutes), then, the absorbance at 450 nm was measured using a micro plate reader. The melanine amount was calculated from a calibration curve made using synthetic melanine (SIGMA) as a standard. The melanine amount per unit protein was calculated by dividing the melanine amount by the protein amount. (5) The melanine production suppressing rate was calculated according to the following formula. Melanine production suppressing rate (%)=[1−(A−B)/(C−B)]×100 [wherein, A represents the melanine amount per unit protein (g/g) in adding a sample, B represents the melanine amount per unit protein (g/g) in the normal group, and C represents the melanine amount per unit protein (g/g) in the control group.] In the above, Normal group is a case of theophylline (−; no addition) and sample (−; no addition), and Control group is a case of theophylline (+; addition) and sample (−; no addition). (6) Determination of Skin-Lightening Effect The amount of a sample required for adjusting the melanogenesis inhibiting ratio to 40% or more was measured, and the effect was evaluated by the following criteria based on the measured amount. The measurement was conducted at N=4 (4 wells per sample). The skin-lightening effect is expressed as described below based on the sample concentration showing the melanogenesis inhibiting ratio of 40% or more. The measurement was conducted at N=4.

[2] = tested on: Escherichia coli, Pseudomonas aeruginosa, Staphylococcus aureus and Candida albicans; assay: Antimicrobial test on SCD agar medium containing the sample; assay type: cell-based; settings: 12 specimens per sample (3.0%, 1.0%, 0.5% x four microorganisms), 30° C., 7 days, visual
Method: The propyl-phenyl-ether derivative of the present invention was evaluated for an antimicrobial test using four bacteria: Escherichia coli, Pseudomonas aeruginosa, Staphylococcus aureus and Candida albicans (use of ATCC strain) according to the following procedure. As a comparative compound, 1,2-pentandiol was used.
(1) Into a test tube containing 1.0 g of Tween 80 (polyoxyethylene sorbitan monooleate) added, 0.3 g, 0.1 g or 0.05 g of various samples were added, and SCD (Soybean Casein Digest) agar medium was added each in an amount of about 10 mL so as to give final concentrations of 3.0%, 1.0% and 0.5%, and stirred thoroughly with Vortex. Thereafter, the sample-containing medium was sterilized by high-pressure steam sterilization (for 15 minutes at 121° C.), cooled down to 45° C., the medium was poured gently onto a petri dish sterilized previously, and spread over the whole petri dish having signage of 4-section on the outer surface of the bottom, and allowed to stand still to solidify the medium. (2) Thereafter, various bacterium solutions of which number of bacteria had been previously regulated to 1.0×10^4 to 5.0×10^4 cfu/mL were inoculated on the sample-containing medium prepared in (1), each one bacterium for one section of the petri dish, each in an amount of 10 μL on four places (three concentrations are applied to four kinds of bacteria for each sample, that is, 12 specimens per sample). (3) These were cultured in a 30° C. thermostat bath for 7 days. (4) The presence or absence of bacteria was determined visually.
The results are classified by the following criteria and shown in Table 4. • The number of specimens confirming bacteria was 10 or more: Δ • The number of specimens confirming bacteria was 6 to 9: ◯ • The number of specimens confirming bacteria was 5 or less: ⊚

[3] = tested on: Propionibacterium acnes (JCM6415); assay: Anti-acne test (growth in GAM bouillon medium, OD620); assay type: cell-based; settings: sample final concentration 0.1%, 37° C., anaerobic, 48 hours
Method: Propionibacterium acnes (JCM6415: ATCC strain) was transplanted to GAM bouillon medium (manufactured by Nissui Pharmaceutical Co., Ltd.), and cultured at 37° C. under anaerobic condition for 24 hours. Thereafter, it was diluted with GAM bouillon medium so that the final bacterium concentration was OD620=0.1, and this was used as a test bacterium solution. In examples, the propyl-phenyl-ether derivative was weighed so that the final concentration was 0.1%, dissolved in GAM bouillon medium, then, filter-sterilization was performed. The resultant solution was used as a sample solution. The test bacterium solution was added in an amount of 30 μL and the sample solution was added in an amount of 120 μL to a 96-well microplate (manufactured by Sumitomo Bakelite Co., Ltd.), then, immediately, the micro plate and AnaeroPack-KENKI (manufactured by Mitsubishi Gas Chemical Co., Inc.) were placed into an anaerobic jar (manufactured by Mitsubishi Gas Chemical Co., Inc.), and culture was carried out at 37° C. under anaerobic condition for 48 hours. Thereafter, OD620 was measured by a microplate reader. The same test was conducted using methylparaben, phenoxyethanol and sodium ascorbate as comparative compounds.
The results are classified by the following criteria and shown in Table 5-Table 7. • Δ: OD620 is 0.6 or more • ◯: OD620 is 0.3-0.6 • ⊚: OD620 is 0.3 or less

Row | Structure (SMILES) | Coloration, 2 weeks after [1] | Coloration, 4 weeks after ([1]; 4 weeks) | IC40 (B16 melanoma 4A5 cell) [µM] | Judgment: number of specimens confirming bacteria [2] | Stability in terms of coloration (in words) ([1]; summary of Table 8, 50° C., 4 weeks) | Judgment: OD620 after culture [3] | Judgment: sample concentration showing the melanogenesis inhibiting ratio of 40% or more (B16 melanoma 4A5 cell)
1 | OC[C@H]1O[C@@H](Oc2ccc(O)cc2)[C@H](O)[C@@H](O)[C@@H]1O [Arbutin] | ◯ (◯: total points of 10 panelists is 22 or more) | Δ (Δ: total points of 10 panelists is 15 to 21) | 30 to 100 |  |  |  | 
2 | CC(C)(C)c1ccc(OCC(O)CO)cc1 (stereo not shown) [Example 1, 1,2-di-hydroxy-3-(4′-tert-butylphenoxy)propyl] | ◯ (◯: total points of 10 panelists is 22 or more) | ◯ (◯: total points of 10 panelists is 22 or more) |  | ⊚ (The number of specimens confirming bacteria was 5 or less: ⊚) | excellent in stability in terms of coloration | ⊚⊚ | ⊚⊚ (≦30 μmol/L: ⊚⊚)
3 | Oc1ccc(O)cc1 [Hydroquinone] | X (X: total points of 10 panelists is 14 or less) | X (X: total points of 10 panelists is 14 or less) | ≥ 300 |  |  |  | 
4 | CCCC(O)CO (stereo not shown) [1,2-pentandiol, reference compound] |  |  |  | Δ (The number of specimens confirming bacteria was 10 or more: Δ) |  |  | 
5 | O=C1O[C@H]([C@@H](O)CO)C(O)=C1O [Ascorbic acid] | X (X: total points of 10 panelists is 14 or less) | X (X: total points of 10 panelists is 14 or less) | ≥ 300 |  |  |  | 
6 | CCCCCCCC(=O)OCC(COc1ccc(C(C)(C)C)cc1)OC(=O)CCCCCCC (stereo not shown) [Example 7, 1,2-di-octanoyl-3-(4′-tert-butylphenoxy) propyl] |  |  |  | ◯ (The number of specimens confirming bacteria was 6 to 9: ◯) |  | ◯ (◯: OD620 is 0.3-0.6) | ⊚⊚ (≦30 μmol/L: ⊚⊚)
7 | O=c1cc(CO)occ1O [Kojic acid] | ◯ (◯: total points of 10 panelists is 22 or more) | Δ (Δ: total points of 10 panelists is 15 to 21) | ≥ 300 |  |  |  | 
8 | CCC(C)c1ccccc1OCC(O)CO (stereo not shown) [Example 6, 1,2-di-hydroxy-3-(2′-sec-butylphenoxy)propyl] |  |  | 100 to 300 | ◯ (The number of specimens confirming bacteria was 6 to 9: ◯) |  | ◯ (◯: OD620 is 0.3-0.6) | 
9 | CCOCC(O)COc1ccc(C(C)(C)C)cc1 (stereo not shown) [Example 3 (1-O-ethyl-2-hydroxy-3-(4′-tert-butylphenoxy)propy] [1-O-ethyl-2-hydroxy-3-(4′-tert-butylphenoxy)propyl] |  |  |  | ⊚ (The number of specimens confirming bacteria was 5 or less: ⊚) |  | ◯ (◯: OD620 is 0.3-0.6) | ⊚⊚ (≦30 μmol/L: ⊚⊚)
10 | CCC(C)c1ccc(OCC(O)CO)cc1 (stereo not shown) [Example 5, 1,2-di-hydroxy-3-(4′-sec-butylphenoxy)propyl] |  |  |  | ⊚ (The number of specimens confirming bacteria was 5 or less: ⊚) |  | ◯ (◯: OD620 is 0.3-0.6) | ⊚ (30 to 100 μmol/L: ⊚)

Reference: patent US20150238401A1, “PROPYL-PHENYL-ETHER DERIVATIVE, AND MELANOGENESIS INHIBITOR, SKIN-LIGHTENING AGENT, ANTIMICROBIAL AGENT AND COSMETIC CONTAINING SAID PROPYL-PHENYL-ETHER DERIVATIVE” (SEIWA KASEI COMPANY, LIMITED, priority 2012, published 2015)
